Test results reported in patent publication US11123319B2, “Methods and compositions for treating edema refractory to oral diuretics” (RESQ Pharmaceuticals LLC, priority 2019, dated 2021).
Where a name gives a salt, the structure may show the parent alone.

How the values were obtained:
[1] = Stability of arginine and potassium bumetanide salt solutions over four weeks at 5 °C or 25 °C; format: physicochemical; settings: for stability in solution (conclusion): at either 5° C. or 25° C.
Experimental: The stability of the arginine and potassium bumetanide salts was monitored over a four week period with storage at either 2-8° C. or 25° C. for that time period. The bumetanide salt solutions were evaluated on the basis of pH, concentration of bumetanide in solution, the percent assay recovery and the presence of an impurity (see Tables 18 and 19).

[2] = Solubility of bumetanide salts formed in situ with various bases (saturated solution, HPLC); format: physicochemical; settings: deionized water with base added (salt formed in situ), thermodynamic from solid, 20 mg bumetanide in 1 mL deionized water + base, 0.22 μm filtrate, read-out: Calculated conc. (measured solubility of bumetanide salt)
Experimental: The acid form of bumetanide was weighed out to 20 mg and dissolved in 1 mL of deionized water by mixing with a vortex to form a low-pH solution of bumetanide. To this low pH bumetanide solution, a determined amount of base was added and mixed using a vortex for 2 minutes, to form a solution having a pH suitable for nasal administration. With the increasing pH the bumetanide salt formed in situ precipitated, in part, to form a saturated solution of the resulting salt form. The saturated solution was then filtered through a 0.22 μm filter to remove all precipitated bumetanide salt. The filtrate was collected, and its pH was measured. An aliquot of the saturated solution was assayed for bumetanide by HPLC to determine the maximum concentration achievable for the salt form in water at about neutral pH.
This procedure was repeated for various bases, including arginine, lysine, potassium, sodium, glycine, histidine, and the cationic lipophilic surfactants soy lecithin, distearoyl glycerol-3-phosphatidylamine, L-α-phosphatidylethanolamine and bis(2-ethylhexyl)amine, in order to determine the maximum solubility of each bumetanide salt solution.

[3] = Serum pharmacokinetics of bumetanide after single intranasal, sublingual or intravenous dose in dogs; settings: both sexes, beagle, dog, in vivo, 0.5-mg IV dose (Second Replicate), individual animals
Experimental: The purpose of this study was to assess the pharmacokinetic profiles of various formulations of bumetanide, including arginine bumetanide salts (F69), potassium bumetanide salts (F10), an bumetanide emulsion (FE-9), and a nano-emulsion of bumetanide (FNE-1), which are described in Table 42, when each formulation is administered as a single intranasal dose or as a single sublingual dose in different vehicles when compared to single IV administration dose in male and female beagle dogs.
A total of four dogs were assigned to the study (3 males, 8-12 kg and 1 female, 7-11 kg). Because bumetanide is a diuretic, 30 minutes prior to dosing, the dogs received a 100 mL injection of Lactated Ringer's solution subcutaneously (SQ) for all events. The 100 mL injection was repeated ˜2 hours post-dose.
This study was conducted in 9 Events in two phases (A and B) in the same animals, separated by approximately a 48 hour or more washout period between events in each phase and ˜2 weeks rest period between phases, meaning Phase B events were initiated after ˜2 weeks rest period from completion of Event 5. The dosing regimen for Phase A and Phase B events are described in Table 43 and 44 respectively.
For intranasal administration, each dog was held in an upright position with the nose pointing up. […]

[4] = Solubility of bumetanide (free acid) in water in the presence and absence of surfactant, HPLC; format: physicochemical; settings: 10 mg in 1 mL deionized water, no surfactant
Experimental: Bumetanide, 10 mg, in its free acid form was added to 1 mL of deionized water and mixed using a vortex and sonicator. The solution was filtered using a 0.22 μm nylon syringe filter. To 900 μL deionized water, 100 μL of the filtered bumetanide solution was added before being characterized for the concentration of the bumetanide in solution using HPLC. The concentration of bumetanide was determined using a standard curve generated by bumetanide solutions of known concentrations. […] Therefore, to the 10 mg of bumetanide, 1 mL of deionized water containing 1.0%, 0.5% or 0.1% of the surfactant tetradecyl-β-D-maltoside. The bumetanide was then solubilized using a vortex and sonicator, after which it was filtered using a 0.22 μm nylon syringe filter. To 900 μL deionized water, 100 μL of the filtered bumetanide solution was added before being characterized for the concentration of the bumetanide in solution using HPLC. The resulting bumetanide concentrations are recorded in Table 1.

Row | SMILES | Assay ([1]; 1 week, 5° C.) [mg/mL] | pH ([1]; 1 week, 5° C.) | Assay ([1]; 1 week, 25° C.) [mg/mL] | pH ([1]; 1 week, 25° C.) | Assay ([1]; 2 weeks, 5° C.) [mg/mL] | pH ([1]; 2 weeks, 5° C.) | Assay ([1]; 2 weeks, 25° C.) [mg/mL] | pH ([1]; 2 weeks, 25° C.) | Assay ([1]; 4 weeks, 5° C.) [mg/mL] | pH ([1]; 4 weeks, 5° C.) | Assay ([1]; 4 weeks, 25° C.) [mg/mL] | pH ([1]; 4 weeks, 25° C.) | Assay ([1]; T0) [mg/mL] | Osmolality ([1]; T0) [mOsm/kg] | Viscosity ([1]; T0) [cP] | pH ([1]; T0) | stability in solution (conclusion) [1] | also measured
1 | CCCCNc1cc(C(=O)O)cc(S(N)(=O)=O)c1Oc1ccccc1.N=C(N)NCCCC(N)C(=O)O [arginine bumetanide salt] | 5.08 | 7.0 | 5.06 | 7.1 | 4.99 | 7.0 | 4.97 | 7.0 | 4.89 | 7.0 | 4.97 | 7.1 | 5.07 | 335 | 1.3 | 7.0 | stable for up to four weeks | impurity by HPLC ([1]; initially or after four weeks, 5° C. and 25° C.): no impurity was detected
2 | CCCCNc1cc(C(=O)O)cc(S(N)(=O)=O)c1Oc1ccccc1 [potassium bumetanide salt] | 5.18 | 7.0 | 5.10 | 7.0 | 4.97 | 7.0 | 4.96 | 7.1 | 5.00 | 7.0 | 5.03 | 7.1 | 5.10 | 317 | 1.3 | 7.0 | stable for up to four weeks | solubility at 2 min [2]: 20.2 mg/mL
3 | CCCCNc1cc(C(=O)O)cc(S(N)(=O)=O)c1Oc1ccccc1 [Bumetanide, bumetanide] |  |  |  |  |  |  |  |  |  |  |  |  |  |  |  |  |  | concentration at 45 min [3]: 13.9 ng/mL; solubility of free acid form in water [4]: Nearly no bumetanide in the free acid form was soluble water
